Type in all cases: in vivo
In experiment [1] the test system is Echinochloa oryzicola Vasing. (Eo). The experiment is described as follows: Test for herbicidal effect by paddy field soil treatment (Test Example 1). The following applies: application amount (active ingredient) 100 g/10 a, examined at the 21st day from the treatment, index per Table 40. The method in brief:
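Scored on a standard scale at day 21 in the greenhouse: herbicidal effect of wettable powder applied to flooded water (3 cm depth) at 100 g a.i./10 ares, one day after sowing Eo into puddled paddy soil.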

Experiment [2] has as its system Echinochloa crus-galli (L.) Beauv. var. crusgalli (Ec). The experiment is described as follows: Test for herbicidal effect by upland foliage treatment (Test Example 3). The conditions noted are these: 100 g/10 a active ingredient, examined at 14th day. Put shortly: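 Scored 14 days post-spray against a graded standard: greenhouse-grown Ec, 2 weeks old in upland soil, received whole-foliage application of diluted wettable powder (100 g active ingredient per 10 ares, spray volume 100 L per 10 ares).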

Experiment [3] concerns Echinochloa crus-galli (L.) Beauv. var. crusgall (Ec). The experiment is described as follows: Test for herbicidal effect by upland field soil treatment (Test Example 2), Ec. Put shortly: (§1)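 Pre-emergence soil treatment: wettable powder diluted in water and sprayed on soil just sown with Ec and Se seeds, delivering 100 g active ingredient per 10 ares in 100 liters per 10 ares. Herbicidal effect was rated against a fixed scale 21 days later, after greenhouse growth.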

The test system of experiment [4] is Setaria viridis (L.) Beauv. (Se). The experiment is described as follows: Test for herbicidal effect by upland field soil treatment (Test Example 2), Se. The method in brief: as §1
Where [5] appears, read: 100 g/10 a active ingredient, examined at 21st day.
The mark [6] stands for this setting: application amount (active ingredient) 100 g/10 a, examined at the 21st day from the treatment, index per Table 40.

Consider `CCOCc1ccccc1CS(=O)(=O)C1=NOC(C)(C)C1` [Compound 1-586], for which the “Herbicidal effect to Eo” value in experiment [1] is 5 (A herbicidal effect or phytotoxicity of 90% or more). The “Herbicidal effect to Ec” value in experiment [2] and in experiment [3] (setting [5]) was 5 (A herbicidal effect or phytotoxicity of 90% or more) in each case. Besides, the “Herbicidal effect to Se” value in experiment [4] (setting [5]) is given as 5 (A herbicidal effect or phytotoxicity of 90% or more).
Turning to `CC1(C)CC(S(=O)(=O)Cc2c(F)cccc2C(F)(F)F)=NO1` [Compound 1-527], the “Herbicidal effect to Eo” value in experiment [1] is listed as 5 (A herbicidal effect or phytotoxicity of 90% or more). The “Herbicidal effect to Ec” value in experiment [2] and in experiment [3] (setting [5]) was 5 (A herbicidal effect or phytotoxicity of 90% or more) in each case. The “Herbicidal effect to Se” value in experiment [4] (setting [5]) is reported as 5 (A herbicidal effect or phytotoxicity of 90% or more).
Take `CCCC1(C)CC(S(=O)(=O)Cc2c(F)cccc2F)=NO1` (stereo not shown) [Compound 1-366]: in experiment [1], the “Herbicidal effect to Eo” value is recorded as 5 (A herbicidal effect or phytotoxicity of 90% or more). Also, the “Herbicidal effect to Ec” value in experiment [2] is 4 (A herbicidal effect or phytotoxicity of 70% to less than 90%); in experiment [3] (setting [6]), 5 (A herbicidal effect or phytotoxicity of 90% or more). Also, the “Herbicidal effect to Se” value in experiment [4] (setting [6]) is 5 (A herbicidal effect or phytotoxicity of 90% or more).
Regarding `CC1(C)CC(S(=O)(=O)Cc2cccc(Cl)c2)=NO1` [Compound 1-3], the “Herbicidal effect to Eo” value in experiment [1] is reported as 5 (A herbicidal effect or phytotoxicity of 90% or more). The “Herbicidal effect to Ec” value is listed as 4 (A herbicidal effect or phytotoxicity of 70% to less than 90%) in experiment [2] and 5 (A herbicidal effect or phytotoxicity of 90% or more) in experiment [3] (setting [6]). In addition, in experiment [4] (setting [6]), the “Herbicidal effect to Se” value is listed as 5 (A herbicidal effect or phytotoxicity of 90% or more).
For the compound `CC1(C)CC(S(=O)(=O)Cc2ccc(F)c(F)c2)=NO1` [Compound 1-497], the “Herbicidal effect to Eo” value in experiment [1] was 5 (A herbicidal effect or phytotoxicity of 90% or more). Besides, the “Herbicidal effect to Ec” value in experiment [2] and in experiment [3] (setting [6]) was 5 (A herbicidal effect or phytotoxicity of 90% or more) throughout. For the same compound, the “Herbicidal effect to Se” value in experiment [4] (setting [6]) was 5 (A herbicidal effect or phytotoxicity of 90% or more).
Regarding `CC1(C)CC(S(=O)(=O)Cc2ccccc2F)=NO1` [Compound 1-32], in experiment [1], the “Herbicidal effect to Eo” value is listed as 5 (A herbicidal effect or phytotoxicity of 90% or more). The “Herbicidal effect to Ec” value in experiment [2] and in experiment [3] (setting [6]) was 5 (A herbicidal effect or phytotoxicity of 90% or more) throughout. Besides, the “Herbicidal effect to Se” value in experiment [4] (setting [6]) is reported as 5 (A herbicidal effect or phytotoxicity of 90% or more).
With `CCCOc1cccc(Cl)c1CS(=O)(=O)C1=NOC(C)(C)C1` [Compound 1-565], the “Herbicidal effect to Eo” value in experiment [1] is 5 (A herbicidal effect or phytotoxicity of 90% or more). In addition, the “Herbicidal effect to Ec” value in experiment [2] is reported as 4 (A herbicidal effect or phytotoxicity of 70% to less than 90%); in experiment [3] (setting [5]), 5 (A herbicidal effect or phytotoxicity of 90% or more). For the same compound, the “Herbicidal effect to Se” value in experiment [4] (setting [5]) is recorded as 5 (A herbicidal effect or phytotoxicity of 90% or more).
For the compound `CCC1(C)CC(S(=O)(=O)Cc2ccccc2Cl)=NO1` (stereo not shown) [Compound 1-192], in experiment [1], the “Herbicidal effect to Eo” value is reported as 5 (A herbicidal effect or phytotoxicity of 90% or more). For the same compound, the “Herbicidal effect to Ec” value in experiment [2] is 4 (A herbicidal effect or phytotoxicity of 70% to less than 90%); in experiment [3] (setting [6]), 5 (A herbicidal effect or phytotoxicity of 90% or more). The “Herbicidal effect to Se” value in experiment [4] (setting [6]) is 5 (A herbicidal effect or phytotoxicity of 90% or more).
For the compound `C#CCOc1ccccc1CS(=O)(=O)C1=NOC(C)(C)C1` [Compound 1-559], in experiment [1], the “Herbicidal effect to Eo” value is reported as 5 (A herbicidal effect or phytotoxicity of 90% or more). For the same compound, the “Herbicidal effect to Ec” value in experiment [2] and in experiment [3] (setting [5]) was 5 (A herbicidal effect or phytotoxicity of 90% or more) each time. In addition, in experiment [4] (setting [5]), the “Herbicidal effect to Se” value was 5 (A herbicidal effect or phytotoxicity of 90% or more).
Regarding `CC1(C)CC(S(=O)(=O)Cc2cc(F)cc(F)c2F)=NO1` [Compound 1-508], the “Herbicidal effect to Eo” value in experiment [1] is recorded as 5 (A herbicidal effect or phytotoxicity of 90% or more). Also, the “Herbicidal effect to Ec” value in experiment [2] is given as 4 (A herbicidal effect or phytotoxicity of 70% to less than 90%); in experiment [3] (setting [5]), 5 (A herbicidal effect or phytotoxicity of 90% or more). For the same compound, in experiment [4] (setting [5]), the “Herbicidal effect to Se” value is given as 5 (A herbicidal effect or phytotoxicity of 90% or more).
Turning to `CCOc1cccc(OCC)c1CS(=O)(=O)C1=NOC(C)(C)C1` [Compound 1-536], in experiment [1], the “Herbicidal effect to Eo” value was 5 (A herbicidal effect or phytotoxicity of 90% or more). For the same compound, the entries for the “Herbicidal effect to Ec” value in experiment [2] and in experiment [3] (setting [5]) were 4 (A herbicidal effect or phytotoxicity of 70% to less than 90%) and 5 (A herbicidal effect or phytotoxicity of 90% or more), respectively. The “Herbicidal effect to Se” value in experiment [4] (setting [5]) is recorded as 5 (A herbicidal effect or phytotoxicity of 90% or more).
For `CC1(C)CC(S(=O)(=O)Cc2ccc(C(F)(F)F)cc2F)=NO1` [Compound 1-528], the “Herbicidal effect to Eo” value in experiment [1] is 5 (A herbicidal effect or phytotoxicity of 90% or more). For the same compound, the “Herbicidal effect to Ec” value in experiment [2] and in experiment [3] (setting [5]) was 5 (A herbicidal effect or phytotoxicity of 90% or more) each time. Further, the “Herbicidal effect to Se” value in experiment [4] (setting [5]) is listed as 5 (A herbicidal effect or phytotoxicity of 90% or more).
Consider `CCC1(C)CC(S(=O)(=O)Cc2cccc(C)c2)=NO1` (stereo not shown) [Compound 1-202], for which, in experiment [1], the “Herbicidal effect to Eo” value was 5 (A herbicidal effect or phytotoxicity of 90% or more). Further, the “Herbicidal effect to Ec” value is reported as 4 (A herbicidal effect or phytotoxicity of 70% to less than 90%) in experiment [2] and 5 (A herbicidal effect or phytotoxicity of 90% or more) in experiment [3] (setting [6]). Also, in experiment [4] (setting [6]), the “Herbicidal effect to Se” value is given as 4 (A herbicidal effect or phytotoxicity of 70% to less than 90%).
Turning to `CC1(C)CC(S(=O)(=O)Cc2c(Cl)cccc2Cl)=NO1` [Compound 1-490], the “Herbicidal effect to Eo” value in experiment [1] is given as 5 (A herbicidal effect or phytotoxicity of 90% or more). The “Herbicidal effect to Ec” value in experiment [2] is reported as 4 (A herbicidal effect or phytotoxicity of 70% to less than 90%); in experiment [3] (setting [6]), 5 (A herbicidal effect or phytotoxicity of 90% or more). Also, the “Herbicidal effect to Se” value in experiment [4] (setting [6]) is 4 (A herbicidal effect or phytotoxicity of 70% to less than 90%).
Regarding `CC1(C)CC(S(=O)(=O)Cc2ccc(F)c(C(F)(F)F)c2)=NO1` [Compound 1-541], the “Herbicidal effect to Eo” value in experiment [1] was 5 (A herbicidal effect or phytotoxicity of 90% or more). The “Herbicidal effect to Ec” value in experiment [2] is 4 (A herbicidal effect or phytotoxicity of 70% to less than 90%); in experiment [3] (setting [5]), 5 (A herbicidal effect or phytotoxicity of 90% or more). Besides, the “Herbicidal effect to Se” value in experiment [4] (setting [5]) is reported as 5 (A herbicidal effect or phytotoxicity of 90% or more).
Turning to `CC(C)OC(=O)c1ccccc1CS(=O)(=O)C1=NOC(C)(C)C1` [Compound 1-595], in experiment [1], the “Herbicidal effect to Eo” value is reported as 5 (A herbicidal effect or phytotoxicity of 90% or more). The “Herbicidal effect to Ec” value in experiment [2] was 4 (A herbicidal effect or phytotoxicity of 70% to less than 90%); in experiment [3] (setting [5]) it was 5 (A herbicidal effect or phytotoxicity of 90% or more). Besides, in experiment [4] (setting [5]), the “Herbicidal effect to Se” value is 5 (A herbicidal effect or phytotoxicity of 90% or more).

The record behind these values is patent US6841519B1, “Isoxazoline derivatives and herbicides containing the same as the active ingredient” (Kumiai Chemical Industry Co., Ltd., priority 1999, dated 2005).
